In patent publication US20240287138A1, “CYCLIC PEPTIDES FOR INHIBITING TNF RECEPTOR 1 ACTIVITY” (Merck Sharp & Dohme LLC, priority 2023, published 2024):
Read-outs that look alike come from different tables or passages of the source. Numbered stars: 1 amine (or outer) side, 2 acyl side, 3 side chain; on linkers, the order of the positions; unused ones are H or OH. Square brackets hold non-standard residues; d marks the D form. Peptide text beside a SMILES is read from it. * marks the point of attachment. Trp(βS-Me,7-OMe) = COc1cccc2c([C@H](C)[C@H](N)C(=O)O)c[nH]c12; dPro(trans-4-NMe3+) = C[N+](C)(C)[C@@H]1CN[C@@H](C(=O)O)C1; X51 = CCC[C@@H](c1c[nH]c2ccccc12)[C@H](N[*:1])C(=O)[*:2]; Phe(4-SO2NH2) = N[C@@H](Cc1ccc(S(N)(=O)=O)cc1)C(=O)O; Ala(indazol-1-yl) = N[C@@H](Cn1ncc2ccccc21)C(=O)O; Trp(7-CN) = N#Cc1cccc2c(C[C@H](N)C(=O)O)c[nH]c12; Trp(7-Cl) = N[C@@H](Cc1c[nH]c2c(Cl)cccc12)C(=O)O; Ala(pyrimidin-5-yl) = N[C@@H](Cc1cncnc1)C(=O)O; Phe(3-CONH2) = NC(=O)c1cccc(C[C@H](N)C(=O)O)c1; Phe(4-CONH2) = NC(=O)c1ccc(C[C@H](N)C(=O)O)cc1; Phe(4-COOH) = N[C@@H](Cc1ccc(C(=O)O)cc1)C(=O)O; Trp(7-aza) = N[C@@H](Cc1c[nH]c2ncccc12)C(=O)O; X63 = O=C([C@@H]1CC[C@H](O)CN1[*:1])[*:2]; dPro(4S-NH2) = N[C@@H]1CN[C@@H](C(=O)O)C1; Pip(5R-OH) = O=C(O)[C@@H]1CC[C@@H](O)CN1; X1 = O=C([C@@H]1CC[C@H](N[*:1])C1)[*:2]; 4Pal = N[C@@H](Cc1ccncc1)C(=O)O; dHyp = O=C(O)[C@H]1C[C@H](O)CN1; αMeS = C[C@](N)(CO)C(=O)O; Carboxymethyl = O=C(O)C*; Nle = CCCC[C@H](N)C(=O)O; Sar = CNCC(=O)O

How the values were obtained:
[1] = biological target: T1, human soluble TNFR1 (sTNFR1) (Homo sapiens, UniProt P19438); assay: Human sTNFR1-peptide displacement assay (LanthaScreen Eu TR-FRET binding assay)
T1 construct: made in house; host or cells: Sf21 (baculovirus)
T1 sequence (P19438 with tags, fused parts or gaps): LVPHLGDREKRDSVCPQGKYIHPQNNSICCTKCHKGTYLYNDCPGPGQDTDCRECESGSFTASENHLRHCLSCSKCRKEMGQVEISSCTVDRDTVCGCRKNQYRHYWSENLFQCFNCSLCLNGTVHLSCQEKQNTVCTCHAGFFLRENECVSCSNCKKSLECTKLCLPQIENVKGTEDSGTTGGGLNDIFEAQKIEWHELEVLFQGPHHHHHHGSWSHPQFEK
How it was run: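 Readout is the 665/615 nm TR-FRET ratio (Eu anti-His donor, streptavidin-Alexa647 acceptor), normalized to DMSO and saturating displacer, fit by Morrison-based five-parameter logistic for Kd^app. His-tagged sTNFR1 (1-211) prebound to 100 nM biotinylated peptide SEQ ID NO.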

[2] = biological target: T2, TNFα-induced NF-κB signal transduction pathway (TNFR1 signaling) in THP-1 cells (Homo sapiens, UniProt P19438); assay: THP-1 Lucia NF-κB reporter cell assay, inhibition of TNFα-induced NF-κB signaling; format: cell-based; settings: THP-1 NF-κB Lucia reporter cells, 10 ng/mL TNFα, 16-18 h, secreted luciferase; read-out: THP-1 IC50
T2 sequence (P19438 30-455): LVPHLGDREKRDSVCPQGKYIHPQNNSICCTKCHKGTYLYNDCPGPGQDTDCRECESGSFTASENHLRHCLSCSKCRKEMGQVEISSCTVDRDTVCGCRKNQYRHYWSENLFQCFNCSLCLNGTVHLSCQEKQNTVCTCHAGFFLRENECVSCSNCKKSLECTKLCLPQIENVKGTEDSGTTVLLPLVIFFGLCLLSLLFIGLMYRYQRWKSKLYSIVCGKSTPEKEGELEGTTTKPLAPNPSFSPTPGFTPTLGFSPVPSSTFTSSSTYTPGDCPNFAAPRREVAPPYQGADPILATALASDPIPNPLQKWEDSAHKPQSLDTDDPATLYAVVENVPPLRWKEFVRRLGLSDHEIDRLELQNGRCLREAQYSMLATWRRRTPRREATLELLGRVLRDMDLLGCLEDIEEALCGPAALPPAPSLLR
How it was run: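 THP-1 Lucia NF-κB cells, 20k/well, no selection antibiotics; peptide pre-inc 1 h 37 °C; + recombinant human TNFα 10 ng/mL final; o.n.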

SMILES | Kd [1] [nM] | IC50 [2] [nM] | Kd ([1]; displacement of biotinylated peptide SEQ ID NO. 1 from sTNFR1, 20 point titration, 5-parameter fit based on Morrison equation (tight binding), read-out: TR-FRET Kd^app) [nM]
CCCC[C@@H]1NC(=O)[C@@H]2CC[C@@H](C2)NC(=O)[C@H]([C@@H](CCC)c2c[nH]c3ccccc23)NC(=O)CN(C)C(=O)[C@H](Cc2ccc(C(=O)O)cc2)NC(=O)[C@H](Cc2ccc(C(N)=O)cc2)NC(=O)[C@](C)(CO)NC(=O)[C@H](Cc2c[nH]c3c(Cl)cccc23)NC(=O)[C@H](Cc2ccc(C(=O)O)cc2)NC(=O)[C@H](CC(N)=O)NC(=O)[C@H]2C[C@H](O)CN2C(=O)[C@H](Cc2c[nH]c3ccccc23)NC(=O)[C@@H]2CC[C@@H](O)CN2C(=O)[C@H](Cc2ccncc2)NC1=O [SEQ ID NO. 27] (cyclo([4Pal][Pip(5R-OH)]W[dHyp]N[Phe(4-COOH)][Trp(7-Cl)][αMeS][Phe(4-CONH2)][Phe(4-COOH)][Sar][X51][X1][Nle])) | 0.1 | 0.5 | –
CCCC[C@@H]1NC(=O)[C@@H]2CC[C@@H](C2)NC(=O)[C@H]([C@@H](C)c2c[nH]c3c(OC)cccc23)NC(=O)CN(C)C(=O)[C@H](Cc2ccc(C(=O)O)cc2)NC(=O)[C@H](Cc2ccc(S(N)(=O)=O)cc2)NC(=O)[C@](C)(CO)NC(=O)[C@H](Cc2c[nH]c3c(C#N)cccc23)NC(=O)[C@H](Cc2ccncc2)NC(=O)[C@H](CC(N)=O)NC(=O)[C@H]2C[C@H](OCC(=O)O)CN2C(=O)[C@H](Cc2c[nH]c3ncccc23)NC(=O)[C@@H]2CC[C@@H](O)CN2C(=O)[C@H](Cc2ccncc2)NC1=O [SEQ ID NO. 31] (cyclo([4Pal][Trp(7-CN)][αMeS][Phe(4-SO2NH2)][Phe(4-COOH)][Sar][Trp(βS-Me,7-OMe)][X1][Nle][4Pal][Pip(5R-OH)][Trp(7-aza)][dHyp](Carboxymethyl)N)) | – | 0.4 | 0.04
CCCC[C@@H]1NC(=O)[C@@H]2CC[C@@H](C2)NC(=O)[C@H]([C@@H](C)c2c[nH]c3c(OC)cccc23)NC(=O)CN(C)C(=O)[C@H](Cc2ccc(OCC(=O)O)cc2)NC(=O)[C@H](Cc2ccc(S(N)(=O)=O)cc2)NC(=O)[C@](C)(CO)NC(=O)[C@H](Cc2c[nH]c3c(C#N)cccc23)NC(=O)[C@H](Cc2ccc(OCC(=O)O)cc2)NC(=O)[C@H](CC(N)=O)NC(=O)[C@H]2C[C@H](N)CN2C(=O)[C@H](Cc2c[nH]c3ccccc23)NC(=O)[C@@H]2CC[C@@H](O)CN2C(=O)[C@H](Cc2cncnc2)NC1=O [SEQ ID NO. 37] (cyclo(NY(Carboxymethyl)[Trp(7-CN)][αMeS][Phe(4-SO2NH2)]Y(Carboxymethyl)[Sar][Trp(βS-Me,7-OMe)][X1][Nle][Ala(pyrimidin-5-yl)][Pip(5R-OH)]W[dPro(4S-NH2)])) | 0.09 | 0.6 | –
CCCC[C@@H]1NC(=O)[C@@H]2CC[C@@H](C2)NC(=O)[C@H]([C@@H](C)c2c[nH]c3c(OC)cccc23)NC(=O)CN(C)C(=O)[C@H](Cc2ccc(OCC(=O)O)cc2)NC(=O)[C@H](Cc2ccc(S(N)(=O)=O)cc2)NC(=O)[C@](C)(CO)NC(=O)[C@H](Cc2c[nH]c3c(C#N)cccc23)NC(=O)[C@H](Cc2ccc(OCC(=O)O)cc2)NC(=O)[C@H](CC(N)=O)NC(=O)[C@H]2C[C@H]([N+](C)(C)C)CN2C(=O)[C@H](Cn2ncc3ccccc32)NC(=O)[C@@H]2CC[C@@H](O)CN2C(=O)[C@H](Cc2cncnc2)NC1=O [SEQ ID NO. 43] (cyclo(NY(Carboxymethyl)[Trp(7-CN)][αMeS][Phe(4-SO2NH2)]Y(Carboxymethyl)[Sar][Trp(βS-Me,7-OMe)][X1][Nle][Ala(pyrimidin-5-yl)][Pip(5R-OH)][Ala(indazol-1-yl)][dPro(trans-4-NMe3+)])) | 0.09 | 0.6 | –
CCCC[C@@H]1NC(=O)[C@@H]2CC[C@@H](C2)NC(=O)[C@H]([C@@H](C)c2c[nH]c3c(OC)cccc23)NC(=O)CN(C)C(=O)[C@H](Cc2cccc(C(N)=O)c2)NC(=O)[C@H](Cc2ccc(C(N)=O)cc2)NC(=O)[C@](C)(CO)NC(=O)[C@H](Cc2c[nH]c3c(Cl)cccc23)NC(=O)[C@H](Cc2ccncc2)NC(=O)[C@H](CC(N)=O)NC(=O)[C@H]2C[C@H](O)CN2C(=O)[C@H](Cc2c[nH]c3ccccc23)NC(=O)[C@@H]2CC[C@H](O)CN2C(=O)[C@H](Cc2ccncc2)NC1=O [SEQ ID NO. 67] (cyclo([4Pal][Trp(7-Cl)][αMeS][Phe(4-CONH2)][Phe(3-CONH2)][Sar][Trp(βS-Me,7-OMe)][X1][Nle][4Pal][X63]W[dHyp]N)) | 0.2 | 0.4 | –
